In patent US7041694B1, “Cyclooxygenase-2 inhibition” (Cornell Research Foundation, Inc., priority 1997, dated 2006):

Tests used:
[1] = test system: patient with alcoholic hepatitis; assay: Treatment of a patient with alcoholic hepatitis (Example I); type: in vivo; conditions: 6 mg/kg oral, daily; at the end of three weeks
Experimental: A patient with alcoholic hepatitis is admitted to a hospital complaining of nausea and upper abdominal pain. Liver function test results are total bilirubin of 4.0 mg/dl, direct bilirubin of 3.1 mg/dl, ALT of 100 IU/L, AST of 120 IU/L and prothrombin time of 15.1 seconds.
At the end of three weeks, the nausea and upper abdominal pain have resolved. Each of the blood tests has improved.

[2] = test system: patient with autoimmune hepatitis; assay: Treatment of a patient with autoimmune hepatitis (Example II); type: in vivo; conditions: 6 mg/kg oral for two months
Experimental: The patient is a person with new onset nausea, loss of appetite and right upper quadrant tenderness. They are noted to have elevated liver chemistries. Serologic workup is notable for positive antinuclear and antismooth muscle antibodies. They are considered to have autoimmune hepatitis. Liver biopsy is consistent with this diagnosis. […] The patient is subsequently maintained on an oral dose of 6 mg/kg of the same drug.

Question: How did the “blood tests (liver function tests: total bilirubin, direct bilirubin, ALT, AST, prothrombin time)” value [1] turn out when `NS(=O)(=O)c1ccc(-n2nc(C(F)(F)F)cc2-c2ccc(Cl)cc2)cc1` [4-[5-(4-Chlorophenyl)-3-(trifluoromethyl)-1H-pyrazol-1-yl]benzenesulfonamide] was run?
Answer: improved

Question: And the “nausea and upper abdominal pain” value [1]?
Answer: resolved

Question: What about the “symptoms (nausea, loss of appetite, right upper quadrant tenderness)” value [2] of the same compound?
Answer: resolution of symptoms

Question: For `Cc1ccc(-c2cc(C(F)(F)F)nn2-c2ccc(S(N)(=O)=O)cc2)cc1` [4-[5-(4-Methylphenyl)-3-(trifluoromethyl)-1H-pyrazol-1-yl]benzenesulfonamide], which “blood tests (liver function tests: total bilirubin, direct bilirubin, ALT, AST, prothrombin time)” value [1] is on record?
Answer: same result
